# Assays:
# [1] = test system: Cavα1; assay: Western blot of Cavα1 protein level in 293T cells co-transfected with Cavα1 and Cavβ2 variants; assay type: cell-based
# Procedure: FIG. 5. Akt phosphorylation of Cavβ2 protects Cavα1 from protein degradation. (A-C) YFP-Cavα1 co-transfected 293T cells with the indicated mutant variant of Cavβ2. Cells were serum-starved overnight and treated with (A) […] or (B-C) 5 μM Akt inhibitor as indicated. The expression of YFP-Cavα1 in lysates was monitored by Western blot analysis with anti-YFP antibody, and normalized based on transfection efficiency (Cav(32) and protein amount (Tubulin) (n=3). (D) Cavα1 and Cavβ2 co-transfected 293T cells were treated with siAkt expressing vector as indicated. 3 days post transfection, cell lysate was tested by Western blot analysis. Protein loading was normalized to GAPDH levels. Representative experiments are shown (n=3).
# FIG. 12. Cavβ2 interacts with Akt isoforms and Akt affects Cavα1 protein stability. (A) Immunoprecipitated Akt isoforms from WT cardiac extracts from mice treated or not with insulin (1 mU/g) assayed for Cavβ2. Input protein in each co-immunoprecipitation is shown. (B) Cavα1, Cavα1-ΔP, or Cavα1-ΔH co-transfected 293T cells with either Cavβ2 or Cavβ2-SE were infected with indicated active (AdAkt) or dominant negative (AdAktDN) Akt expressing adenoviral vectors. Cells were serum-starved overnight as indicated. The expression of Cavα1 and phosphorylation of GSK in lysates was monitored by Western blot analysis. (C) Cavα1, Cavα1-ΔP, or Cavα1 co-transfected 293T cells with either Cavβ2 or Cavβ2-SE were treated with siAkt expressing vector as indicated. 3 days post transfection, cells were lysated for protein extraction. Protein loading was normalized to GAPDH levels. Representative experiments are shown (n=3).
# To directly assess whether Akt phosphorylation of Cavβ2 protects Cavα1 from protein degradation, we constructed a mutant of Cavβ2 in which the Serine 625, contained in the putative Akt—consensus site (R—X—X—R—S/T), was replaced by Glutamate (Cavβ2-SE) to mimic phosphorylation. […]
# Proteins expression was evaluated in total lysates or cell fractions by Western blot analysis according to standard procedures. […]
# [2] = test system: Cavα1 currents; assay: Whole-cell patch clamp Ca2+ current (ICa,L) in cotransfected tsA-201 cells with or without serum; assay type: cell-based; conditions: cotransfection with Cavα1; 36 h
# Procedure: FIG. 6. Akt phosphorylation of Cavβ2 preserves Cavα1 currents. Ca^2+ currents recorded in cotransfected tsA-201 cells with YFP-Cavα1 and either Cavβ2-WT, Cavβ2-SE, or Cavβ2-SA mutant, cultivated for 36 h in the presence or absence of fetal bovine serum (10%). Currents were recorded 1-2 minutes after the whole-cell configuration was achieved (i.e. after stabilization of the current) and were elicited by a 0 mV depolarization of 200 ms duration applied from a holding potential of −80 mV. Currents are normalized to cell capacitance (Current density, pA/pF). Representative current traces are shown. n>35 at each condition, (*P<0.05 compared to YFP-Cavα1, ANOVA).
# FIG. 7. […] (C) Wild-type Cavα1 subunit (alone or cotransfected with Cavβ2SE) and its in-frame ΔPEST mutants (Cavα1-ΔP and Cavα1-ΔH) half-lives were determined in COST cells. After overnight starvation, transfected cells were pulse-chased and analyzed along a time course (*P<0.001 compared to Cavα1, ANOVA; n=3). […] (F) Ca^2+ currents recorded in tsA-201 cells cotransfected with Cavβ2-WT and either Cavα1-WT or Cavα1-ΔH and cultivated for 36 h in the presence or absence of fetal bovine serum (10%). […]
# Macroscopic Ice, was recorded at room temperature (˜22° C.) using the whole-cell patch clamp technique in native cells as previously described (Aimond et al., 2005; Maier et al., 2003). […]
# [3] = test system: Cavβ2; assay: Cavβ2 phosphorylation in hearts of insulin-treated mice (PAS antibody); assay type: in vivo, mouse; conditions: 1 mU/g insulin, 20 min post treatment
# Procedure: FIG. 4. Akt interacts with and phosphorylates Cavβ2. (A) Coimmunoprecipitation assay of Akt and Cavβ2. Ventricular homogenates from WT and HA-E40K-Akt transgenic mice (Tg Akt) immunoprecipitated with antibodies against HA and immunoblotted for Cavβ2 as well as HA as a control. (B) Examination of Cavβ2 phosphorylation by Akt. In vitro kinase assays were performed with immunoprecipitated Cavβ2 incubated with recombinant active Akt and ^32P labeled ATP (left) or immunoprecipitated Cavβ2 from WT and KO cardiac extracts from mice treated or not with insulin (1 mU/g) using PAS (Phospho-Akt Substrate) antibody (right). (C) Back-phosphorylation assay of Cavβ2 from WT and KO hearts. Immunoprecipitated Cavβ2 from solubilized membranes was in vitro back-phosphorylated using recombinant active Akt and [γ^32]ATP. Precipitate amounts were assayed for ^32PCavβ2 and total Cavβ2. Representative experiments are shown (n=4).
# To determine whether Cavβ2 can be phosphorylated by Akt, Cavβ2-immunoprecipitates from cardiac homogenates were incubated with recombinant active Akt and [γ-^32]ATP. A band corresponding to phosphorylated Cavβ2 was detected only in the presence of the kinase (FIG. 4B, left panel). To determine whether the Cavβ2 subunit was phosphorylated by Akt in vivo, we treated overnight-starved mice with 1 mU/g insulin to induce activation of Akt (Bayascas et al., 2008). […]
Substance,Cavα1 protein level under Akt inhibitor ([1]; 5 μM Akt inhibitor),Cavα1 protein levels compared to cotransfection with Cavβ2-WT ([1]; 293T cells cotransfected with Cavα1),"ICa,L in serum-free medium compared to serum-containing medium [2]",Cavα1 expression on insulin treatment ([1]; Cavβ2-WT cotransfected cells),Phosphorylation of Cavβ2 in heart [3]
Cavβ2-SE: mutant of Cavβ2 in which Serine 625 in the Akt consensus site was replaced by Glutamate to mimic phosphorylation,counteracted the downregulation of Cavα1,increased,completely counteracted this reduction,–,–
insulin [reference compound],–,–,–,increased,insulin-stimulated phosphorylation of Cavβ2 in WT but not in KO hearts
